The structures appear in SMILES notation.

As a reminder, the IC50 is the concentration needed to halve the response being measured. Usually EC50 stands for the concentration that produces a half-maximal response. By EC90 is commonly meant the concentration at which the effect reaches the 90% level.

One assay relates to PBMC. The assay can be described thus: Cytotoxicity against Homo sapiens (human) PBMCs after 5 days celltiter 96 aqueous assay. It counts as cell-based. As to conditions: 120 h.
The subject of another assay is CCRF-CEM. The assay can be described thus: Cytotoxicity against Homo sapiens (human) CEM cells after 5 days celltiter 96 aqueous assay. It counts as cell-based. To be noted: 120 h.
The test system of another assay is Vero. The assay can be described thus: Cytotoxicity against Chlorocebus aethiops (African green monkey) Vero cells after 5 days celltiter 96 aqueous assay. The class given is cell-based. To be noted: Chlorocebus sabaeus, 120 h.
The test system of assay [1] is Human immunodeficiency virus 1. The assay can be described thus: Antiviral activity against 0.1 MOI of Human immunodeficiency virus 1 LAI infected human PBM cells after 2 to 3 hr by scintillation counting analysis in presence of [3H]thymidine-5'-triphosphate. To be noted: PBMC. The class given is functional, organism-based.

Consider `Cc1ccc(C(=O)/C=C/c2ccc(N3CCCCC3)cc2)s1`, for which the IC50 in the assay on PBMC was 77.8 µM; in the assay with CCRF-CEM, 21.2 µM; in the assay with Vero it was 50.5 µM. The half-maximal effective concentration (EC50) in assay [1] came out at 17.9 µM. In assay [1], the 90% effect concentration (EC90) is 30.9 µM.
Taken in the same sequence, the figures for `O=C(/C=C/c1ccc(N2CCCCC2)cc1)c1ccsc1` were greater than 100 µM, 32.1 µM, 34.4 µM, 56 µM and no less than 100 µM.
Taken in the same sequence, the figures for `O=C(/C=C/c1ccc(N2CCCCC2)cc1)c1sccc1Br` were 39.3 µM, 12.5 µM, 18 µM, 5.8 µM and 27.8 µM.
Taken in the same sequence, the figures for `Cc1ccsc1C1=NNC(c2ccc(N3CCCCC3)cc2)C1` (configuration not stated) were 11 µM, 2.3 µM, 11.4 µM, 5.1 µM and 15.5 µM.
Regarding `Clc1cc(C2=NNC(c3ccc(N4CCCCC4)cc3)C2)c(Cl)s1` (configuration not stated), the 50% inhibitory concentration (IC50) was 59 µM in the assay with PBMC, 37.7 µM in the assay with CCRF-CEM and 53.9 µM in the assay on Vero. In addition, the EC50 in assay [1] was determined as 32.5 µM. In addition, the 90% effect concentration (EC90) in assay [1] is greater than 100 µM.
Taken in the same sequence, the figures for `Brc1ccsc1C1=NNC(c2ccc(N3CCCCC3)cc2)C1` (configuration not stated) were 57 µM, 31.6 µM, 24.8 µM, 17.4 µM and 30.4 µM.
On to `Cc1ccc(C2=NNC(c3ccc(N4CCCCC4)cc3)C2)s1` (configuration not stated), for which the half-maximal inhibitory concentration (IC50) in the assay with PBMC came out at 86.4 µM; in the assay on CCRF-CEM, 15.3 µM; in the assay on Vero, 52 µM. In addition, in assay [1], the half-maximal effective concentration (EC50) is 7.2 µM. For the same compound, the EC90 in assay [1] amounted to 52.9 µM.
Taken in the same sequence, the figures for `Cc1csc(C2=NNC(c3ccc(N4CCCCC4)cc3)C2)c1` (configuration not stated) were 24.4 µM, 16.3 µM, 31.6 µM, 13 µM and 24.9 µM.
Take `Cc1csc(C(=O)/C=C/c2ccc(N3CCCCC3)cc2)c1`: the IC50 with PBMC came out at 68.8 µM; with CCRF-CEM, 33.3 µM; with Vero it was 56.3 µM. For the same compound, the EC50 in assay [1] was 11.6 µM. Moreover, in assay [1], the EC90 is 23.1 µM.
Taken in the same sequence, the figures for `O=C(/C=C/c1ccc(N2CCCCC2)cc1)c1ccc(I)s1` were greater than 100 µM, 22 µM, 56.5 µM, 11.6 µM and no less than 100 µM.
Taken in the same sequence, the figures for `c1csc(C2=NNC(c3ccc(N4CCCCC4)cc3)C2)c1` (configuration not stated) were 20.8 µM, 6.9 µM, 3.2 µM, 7.3 µM and 26.8 µM.
Taken in the same sequence, the figures for `Ic1ccc(C2=NNC(c3ccc(N4CCCCC4)cc3)C2)s1` (configuration not stated) were greater than 100 µM, 36.5 µM, 15.9 µM, 14.5 µM and 43.6 µM.
With `c1cc(C2=NNC(c3ccc(N4CCCCC4)cc3)C2)cs1` (configuration not stated), the half-inhibitory concentration (IC50) with PBMC was greater than 100 µM; in the assay on CCRF-CEM it was 27 µM; with Vero, 29.5 µM. Moreover, in assay [1], the EC50 is 11.3 µM. Moreover, in assay [1], the EC90 is no less than 100 µM.
Compound `Cc1cn([C@H]2C[C@H](N=[N+]=[N-])[C@@H](CO)O2)c(=O)[nH]c1=O` [ZIDOVUDINE] came in with a concentration for half-maximal inhibition (IC50) with PBMC greater than 100 µM. Besides, in assay [1], the EC90 worked out at 0.026 µM.
As for `O=C(/C=C/c1ccc(N2CCCCC2)cc1)c1cc(Cl)sc1Cl`, the IC50 with PBMC amounted to 42.8 µM; in the assay with CCRF-CEM it was 15 µM; in the assay with Vero, 24.9 µM. The EC50 in assay [1] was found to be 11.8 µM. The EC90 in assay [1] stood at 24.7 µM.
`Clc1ccc(C2=NNC(c3ccc(N4CCCCC4)cc3)C2)s1` (configuration not stated): the concentration for half-maximal inhibition (IC50) in the assay on PBMC, with CCRF-CEM and in the assay with Vero was greater than 100 µM throughout. Moreover, the EC50 in assay [1] is 75.3 µM. The EC90 in assay [1] was greater than 100 µM.
As to `Brc1ccc(C2=NNC(c3ccc(N4CCCCC4)cc3)C2)s1` (configuration not stated), the IC50 with PBMC amounted to 80 µM; in the assay with CCRF-CEM it was 21.5 µM; in the assay on Vero, 25.8 µM. The concentration giving a half-maximal response (EC50) in assay [1] was found to be 9 µM. For the same compound, the EC90 in assay [1] came out at 33.3 µM.
Taken in the same sequence, the figures for `O=C(/C=C/c1ccc(N2CCCCC2)cc1)c1ccc(Cl)s1` were greater than 100 µM, 41.5 µM, 32.4 µM, 35.4 µM and no less than 100 µM.
Taken in the same sequence, the figures for `O=C(/C=C/c1ccc(N2CCCCC2)cc1)c1cccs1` were greater than 100 µM, 11.6 µM, 65.5 µM, 73.8 µM and no less than 100 µM.
Taken in the same sequence, the figures for `O=C(/C=C/c1ccc(N2CCCCC2)cc1)c1ccc(Br)s1` were greater than 100 µM, 52.8 µM, 69.5 µM, 46.5 µM and no less than 100 µM.
`Cc1cc(C2=NNC(c3ccc(N4CCCCC4)cc3)C2)c(C)s1` (configuration not stated): the results for the 50% inhibitory concentration (IC50) in the assay on PBMC, in the assay on CCRF-CEM and in the assay on Vero were 77.5 µM, 20.1 µM and 83.4 µM, respectively. Moreover, the EC50 in assay [1] turned out to be 16.9 µM. Moreover, in assay [1], the EC90 stood at 29.8 µM.
Taken in the same sequence, the figures for `Clc1ccsc1C1=NNC(c2ccc(N3CCCCC3)cc2)C1` (configuration not stated) were 34.2 µM, 10.2 µM, 31.6 µM, 2.4 µM and 13.1 µM.
Taken in the same sequence, the figures for `Cc1cc(C(=O)/C=C/c2ccc(N3CCCCC3)cc2)c(C)s1` were 38.2 µM, 16.6 µM, 42.3 µM, 11.6 µM and 23.6 µM.
Taken in the same sequence, the figures for `O=C(/C=C/c1ccc(N2CCCCC2)cc1)c1sccc1Cl` were 32.1 µM, 12.2 µM, 18.1 µM, 8.4 µM and 29 µM.
With `Cc1ccsc1C(=O)/C=C/c1ccc(N2CCCCC2)cc1`, the half-inhibitory concentration (IC50) with PBMC amounted to 26.4 µM; with CCRF-CEM it was 9.9 µM; with Vero, 63.9 µM. Moreover, in assay [1], the concentration for a half-maximal effect (EC50) was 2.5 µM. The EC90 in assay [1] came out at 19.6 µM.
